Experimental data reported in US20120035161A1, “Novel Compositions and Methods of Treating Diseases Using the Same” (CORRIDOR PHARMACEUTICALS, INC., priority 2006, published 2012).
Several values for one entry are separate records, joined by “and”; a condition that tells them apart may be missing. Identical values can stand only once.

What was measured:
[1] = test system: cryopreserved mixed gender human hepatocytes; test: Hepatocyte stability assay; assay type: in vitro ADME
Description: Test compounds (5 μM) were incubated with cryopreserved mixed gender human hepatocytes pooled from at least 3 donors. Cell viability of hepatocytes was assessed by a Trypan Blue assay prior to the initiation of the stability assay. The final hepatocyte cell density was 1.5×10^6 viable cells/mL, Samples were taken at 2 time points: 0 and 60 minutes. As positive controls, testosterone (20 μM) and 7-hydroxy-coumarin (100 μM) were incubated and sampled at 5 time points: 0, 15, 30, 60, and 120 minutes. Aliquots were removed and combined (50/50) with acetonitrile to terminate the reaction. Samples were mixed for 10 minutes and centrifuged. The supernatants were transferred to vial for analysis by HRMS. In this assay, both test compound and a des-glycine metabolite (M1) are quantified based on peak area response ratios.
The enzymatic activities of the human cryopreserved hepatocytes used in this study were verified in parallel by determining the disappearance of testosterone (expressed as half-life) and the formation of 7-hydroxycoumarin glucuronide and 7-hydroxycoumarin sulfate (expressed as a formation rate).

[2] = Phospholipidosis assay (LipidTox); assay type: cell-based; details: human
Description: (§1) More recently, fluorescent dyes have been utilized to assess phospholipidosis in a high throughput manner (Nioi et al., 2007, Toxicol. Sci. 99:162-173). In this assay, HepG2 cells are plated in MEM growth medium and allowed to incubate overnight. Cells are treated with test compounds that have been added to the assay medium (10% fetal bovine serum) containing LipidTox (fluorescent lipophilic dye). After 48 h incubation, cells are fixed and stained with Hoechst. Plates are scanned with an automated fluorescent microscope (Thermo Fisher Cellomics ArrayScan 4.5) and image analysis is used to quantitate cell number and phospholipid accumulation. Compounds are tested in triplicate at multiple concentrations. Three reference compounds, sertraline, perhexyline, and meclizine (high, medium, and low inducers of phospholipidosis, respectively) are included in each assay. The data is expressed as fold induction over background and the % of the positive control (sertraline), which is calculated using the following equation:
(§2) % positive control=100×(RFUcompound−RFUbackground)/(RFUsertaline−RFUbackground),
(§3) where RFU=Relative Fluorescence Unit

HepG2 cells = test: Phospholipidosis assay (LipidTox); assay type: cell-based
Description: as §1, §2, §3

[3] = test system: Serotonin (5-Hydroxytryptamine) 5-HT1, Non-Selective; test: Assay 271000 radioligand binding, 5-HT1 non-selective; set-up: species or system Wistar Rat
Description: (§4) The methods employed in this study have been adapted from the scientific literature to maximize reliability and reproducibility. Reference standards were run as an integral part of each assay to ensure the validity of the results obtained. Assays were performed under conditions as described below. Where presented, IC50 values were determined by a non-linear, least squares regression analysis using the Data Analysis Toolbox (MDL Information Systems, San Leandro, Calif., USA). Where inhibition constants (Ki) are presented, the Ki values were calculated using the equation of Cheng and Prusoff (Cheng, Y., Prusoff, W. H., Biochem. Pharmacol. 22:3099-3108, 1973) using the observed IC50 of the tested compound, the concentration of radioligand employed in the assay, and historical values for the KD of the ligand. Where presented, the Hill coefficient (nu), defining the slope of the competitive binding curve, was calculated using the Data Analysis Toolbox.

[4] = molecular target: T1, Serotonin (5-Hydroxytryptamine) 5-HT1A (Homo sapiens, UniProt P08908); test: Radioligand binding, 5-HT1A ([3H] 8-OH-DPAT)
T1 construct: expressed in transfected cells; host or cells: CHO cells
T1 sequence (P08908 1-422): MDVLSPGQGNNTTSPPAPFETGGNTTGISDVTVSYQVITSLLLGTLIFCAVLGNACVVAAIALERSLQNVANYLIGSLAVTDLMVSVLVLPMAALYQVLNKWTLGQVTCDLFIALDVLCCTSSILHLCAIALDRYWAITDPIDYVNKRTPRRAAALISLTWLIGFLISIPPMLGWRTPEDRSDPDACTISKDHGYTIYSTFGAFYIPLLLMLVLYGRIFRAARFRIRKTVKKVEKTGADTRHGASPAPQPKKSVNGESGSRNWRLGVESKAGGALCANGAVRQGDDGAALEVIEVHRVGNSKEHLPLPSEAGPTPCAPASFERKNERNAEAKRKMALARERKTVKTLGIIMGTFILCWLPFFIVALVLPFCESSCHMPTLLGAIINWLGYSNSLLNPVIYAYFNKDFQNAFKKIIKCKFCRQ
Description: as §4

[5] = molecular target: T2, Serotonin (5-Hydroxytryptamine) 5-HT1B (Rattus norvegicus, UniProt P28564); test: Assay 271200 radioligand binding, 5-HT1B; set-up: species or system Wistar Rat
T2 construct: from tissue
Description: as §4

[6] = test system: Serotonin (5-Hydroxytryptamine) 5-HT2, Non-Selective; test: Assay 271600 radioligand binding, 5-HT2 non-selective; set-up: species or system Wistar Rat
Description: as §4

TNF-α = test: Model of LPS-mediated cytokine production, serum TNF-α; assay type: in vivo, CD1:ICR mice; details: for TNFα inhibition, dose-response study: IP, up to a dose of 5 mg/kg
Description: (§5) Both ICI-685 and ICI-735 were formulated in water. For the time course study, both drugs were formulated at a concentration of 1 mg/ml and dosed 10 ml/kg to produce a dose of 10 mg/kg. For the dose-response study, drug was formulated at concentrations of 0.05, 0.2 and 0.5 mg/ml and dosed at a volume of 10 ml/kg to produce doses of 0.5, 2 and 5 mg/kg, respectively. Animals were dosed IV or IP.
CD1:ICR mice were obtained from Harlan (Indianapolis, Ind.) at 6 weeks of age. Animals were housed 5 per cage, kept on a 12 hr light dark cycle and fed food and water ad libitum. Animals were tested at 8-10 weeks of age.
(§6) Lipopolysaccharide (heat killed E. coli 0127:B5; Sigma Aldrich) was prepared in distilled water at a concentration of 0.025 mg/ml. LPS was dosed at a volume of 10 ml/kg (IP) to produce a final dose of 0.25 mg/kg (approximately 7.5 μg/mouse). Drugs were dosed prior to LPS administration as indicated elsewhere herein. Blood was collected by retro-orbital eye bleed 90 minutes after LPS administration, Serum was prepared from blood and TNF-α and IL-1β levels were measured by using the OPT-EIA mouse TNF-α and IL-1β ELISA kits (BD Biosciences) as per directions of the manufacturer.
The first study was designed to determine the optimal route of administration and the optimal pre-treatment time. Two pre-dose time course studies were conducted. The first (Study 1A) was conducted with 3 pre-dose time points (2, 6 and 18 hrs). The second was conducted at 0, 1 and 2 hr predose time points. For both studies, drug was dosed IP or IV.
Using data from the first study, a second study was conducted that was designed to measure dose-response activity of each compound. Compounds were tested at doses of […]., 2.0 and 5 mg/kg using the route and pre-treatment time that produced the best activity.
as §5, with “Compounds ICI-715, ICI-824, ICI-953” for “Both ICI-685”, “ICI-954” for “ICI-735”, “study,” for “study, both”, “drugs were” for “drug was”
as §6, with “mg/ml,” for “mg/ml.”, “[…]).” for “μg/mouse).”, “above.” for “elsewhere herein.”, “administration.” for “administration,”
The first study was designed to determine the optimal route of administration and the optimal pre-treatment time. One pre-dose time course was conducted (for all compounds) with compounds administered at 0, 1 and 2 hrs prior to LPS treatment. For both studies, drug was dosed IP or IV. The IP study and IV study were conducted on separate days.
Using data from the first study, a second study was conducted that was designed to measure dose-response activity of each compound. Compounds were tested at doses of 0.5, 2.0 and 5 mg/kg using the route and pre-treatment time that produced the best activity.

[7] = T = 60 minutes, 5 μM test compound

T2 sequence (P28564 whole entry): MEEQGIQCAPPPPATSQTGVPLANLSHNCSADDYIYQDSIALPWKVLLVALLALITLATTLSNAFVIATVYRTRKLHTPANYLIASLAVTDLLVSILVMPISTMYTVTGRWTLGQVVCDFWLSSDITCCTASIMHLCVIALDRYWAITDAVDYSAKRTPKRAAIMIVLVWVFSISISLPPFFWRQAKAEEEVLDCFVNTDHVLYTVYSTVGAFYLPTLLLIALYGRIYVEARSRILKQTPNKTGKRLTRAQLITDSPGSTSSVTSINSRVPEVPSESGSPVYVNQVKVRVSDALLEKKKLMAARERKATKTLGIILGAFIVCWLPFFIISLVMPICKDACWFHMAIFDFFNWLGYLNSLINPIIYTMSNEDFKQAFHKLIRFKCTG

% INHIBITION ([3]; 0.1 μM) [%] | % INHIBITION ([3]; 10 μM) [%] | % INHIBITION ([6]; 0.1 μM) [%] | % INHIBITION ([6]; 10 μM) [%] | % INHIBITION ([4]; 0.1 μM) [%] | % INHIBITION ([4]; 10 μM) [%] | % INHIBITION ([5]; 0.1 μM) [%] | % INHIBITION ([5]; 10 μM) [%] | SMILES | other results
– | – | – | – | – | – | – | – | CC(C)(N)C(=O)NCCN1CCN(CCCN2c3ccccc3Sc3ccc(C(F)(F)F)cc32)CC1 [Compound 36a, 2-Amino-2-methyl-N-(2-(4-(3-(2-(trifluoromethyl)-10H-phenothiazin-10-yl)propyl)piperazin-1-yl)ethyl)propanamide] | Relative Level (%) ([1]; T = 0 minutes, 5 μM test compound): 97.3% and 102.8%; Peak Areas [1, 7]: 3.42E+06 and 3.82E+06; Relative Level (%) [1, 7]: 99.0% and 109.1%; susceptibility to the metabolic transformation to the metabolite M1 ([1]; compared with ICI-735): less susceptible
– | – | – | – | – | – | – | – | O=CNCC(=O)NCCN1CCN(CCCN2c3ccccc3Sc3ccc(C(F)(F)F)cc32)CC1 [Compound 37b, 2-formamido-N-(2-(4-(3-(2-(trifluoromethyl)-10H-phenothiazin-10-yl)propyl)piperazin-1-yl)ethyl)acetamide] | cytotoxicity at 48 h, 1 µM [2]: 32%; cytotoxicity at 48 h, 3 µM [2]: 17%; cytotoxicity at 48 h, 10 µM [2]: 46%; cytotoxicity at 48 h, 30 µM [2]: 100%; fold induction at 48 h, 1 µM [2]: 1; fold induction at 48 h, 3 µM [2]: 4; fold induction at 48 h, 10 µM [2]: 12; cytotoxicity to HepG2 cells (HepG2 cells): less cytotoxicity; propensity to form phospholipidosis (HepG2 cells): lower propensity; % Positive Control (HepG2 cells; human, 48 h, 1 μM): 0.2%; % Positive Control (HepG2 cells; human, 48 h, 3 μM): 5.8%; % Positive Control (HepG2 cells; human, 48 h, 10 μM): 21.3%
15 | 62 | 18 | 83 | – | – | – | – | CN(C)S(=O)(=O)c1ccc2c(c1)N(CCCN1CCN(CCN)CC1)c1ccccc1S2 [ICI-715] | inhibition at 0.1 µM ([4]; 0.1 μM): 5%; inhibition at 10 µM ([4]; 10 μM): 87%; inhibition at 0.1 µM ([5]; 0.1 μM): 23%; inhibition at 10 µM ([5]; 10 μM): 90%; inhibition of TNFα (TNF-α; dose-response, all doses tested 0.5 to 5 mg/kg, IV): ≥ 50%
−14 | 11 | 28 | 84 | – | – | – | – | FC(F)(F)c1ccc2c(c1)N(CCCC1CCNCC1)c1ccccc1S2 [ICI-824] | inhibition at 0.1 µM ([4]; 0.1 μM): 2%; inhibition at 10 µM ([4]; 10 μM): 53%; inhibition at 0.1 µM ([5]; 0.1 μM): 2%; inhibition at 10 µM ([5]; 10 μM): 6%; TNFα inhibition, dose-response study (TNF-α): ineffective
−2 | 10 | 15 | 85 | – | – | – | – | CNCC(=O)NCCN1CCC(CCCN2c3ccccc3Sc3ccc(C(F)(F)F)cc32)CC1 [ICI-849] | inhibition at 0.1 µM ([4]; 0.1 μM): 18%; inhibition at 10 µM ([4]; 10 μM): 65%; inhibition at 0.1 µM ([5]; 0.1 μM): -7%; inhibition at 10 µM ([5]; 10 μM): -2%
−10 | −1 | 16 | 71 | 5 | 54 | 7 | 2 | NCCN1CCN(CCCCN2c3ccccc3Sc3ccc(C(F)(F)F)cc32)CC1 [ICI-953] | TNFα inhibition, dose-response study (TNF-α): ineffective
−12 | 24 | 51 | 87 | 2 | 48 | 8 | 48 | FC(F)(F)c1ccc2c(c1)N(CCC1CCNCC1)c1ccccc1S2 [ICI-1007] | –
−20 | 3 | 38 | 94 | 4 | 69 | −3 | 0 | NCCN1CCC(CCN2c3ccccc3Sc3ccc(C(F)(F)F)cc32)CC1 [ICI-1008] | –
– | – | – | – | – | – | – | – | Cc1cccc(CN2CCN(C(c3ccccc3)c3ccc(Cl)cc3)CC2)c1 (stereo not shown) [Meclizine, meclizine, reference compound] | cytotoxicity at 48 h, 25 µM [2]: 0%; fold induction at 48 h, 25 µM [2]: 13; % Positive Control (HepG2 cells; human, 48 h, 25 μM): 24%
– | – | – | – | – | – | – | – | C1CCC(C(CC2CCCCN2)C2CCCCC2)CC1 (stereo not shown) [Perhexil, perhexyline, reference compound] | % Cytotoxicity (HepG2 cells; 3 μM, 48 h): 10%; Fold Induction (HepG2 cells; 3 μM, 48 h): 38; % Positive Control (HepG2 cells; 3 μM, 48 h, positive control sertraline): 72%
– | – | – | – | – | – | – | – | CN[C@H]1CC[C@@H](c2ccc(Cl)c(Cl)c2)c2ccccc21 [Sertaline, sertraline, reference compound] | cytotoxicity at 48 h, 3 µM [2]: 15%; fold induction at 48 h, 3 µM [2]: 52; % Positive Control (HepG2 cells; human, 48 h, 3 μM): 100%

SMILES | % INHIBITION ([3]; 0.1 μM) [%] | % INHIBITION ([3]; 10 μM) [%] | % INHIBITION ([6]; 0.1 μM) [%] | % INHIBITION ([6]; 10 μM) [%] | % INHIBITION ([4]; 0.1 μM) [%] | % INHIBITION ([4]; 10 μM) [%] | % INHIBITION ([5]; 0.1 μM) [%] | % INHIBITION ([5]; 10 μM) [%] | other results
NCC(=O)NCCN1CCN(CCCCN2c3ccccc3Sc3ccc(C(F)(F)F)cc32)CC1 [ICI-954] | −3 | 18 | 21 | 89 | 6 | 56 | 4 | −1 | TNFα inhibition, dose-response study (TNF-α): ineffective
